Earlier results as cited in patent US6703036B1, “Stomach-action molluscicides” (priority 1997, dated 2004).

Experiments:
[1] = tested on: rat; settings: oral administration
[2] = tested on: golden apple snail, Pomacea canaliculata; settings: used on its own at 100 ppm, aqueous solution on the water surface

## Sorbitan monostearate
[1]
  LD50: 31000 mg/kg

## CCCCCCCCCCCCOS(=O)(=O)[O-].[Na+] [Sodium dodecyl sulphate]
[2]
  molluscicidal activity: effective molluscicide

## Sorbitan monolaurate
[1]
  LD50: 33600 mg/kg
